Test results as given in patent publication US20170343554A1, “METHODS OF MEASURING ERBB SIGNALING PATHWAY ACTIVITY TO DIAGNOSE AND TREAT CANCER PATIENTS” (Celcuity LLC, priority 2014, published 2017).
Like-named read-outs stand apart in the source and are kept apart here.

What was measured:
[1] = tested on: cells from two breast cancer patients (Patients B1 and B2); assay: CELx Anti-Proliferative test, impedance biosensor CReMS (Example 2); assay type: cell-based, human; conditions: for responsiveness, CReM output (cell index) compared to control cells: continuous recording 48-72 hours
Method: A CELx Anti-Proliferative test was performed using cells from two breast cancer patients (Patients B1 and B2) and the drug Paclitaxel. The physiologic change of the B land B2 cells during the test was measured with an impedance biosensor CReMS and the output from the CReMS is recorded in FIGS. 2A and 2B. The comparison of the CELx test results and the third party clinical reference is recorded in FIG. 2C.
The CReMS, microplate, reagents, and buffers used in Example 1 are the same as those employed in Example 2, except for the therapeutic agent tested. In Example 2, the therapeutic agent, paclitaxel, was tested. Paclitaxel was purchased from Selleck Chemicals (TX, USA).
Breast Cancer cells from Patients B1 and B2 were utilized and handled in the same manner as described in Example 1.
Between 6,000-12,000 cells in each well were seeded onto the impedance microplate containing 120 uL settling media with serum. Forty microliters of the drug paclitaxel were added to one set each of the B1 and B2 cells; another control set of B1 and B2 cells received no drug. The CReMS recording of physiologic change was maintained continuously from when the cells were first seeded on the microplate through complete cellular response, which was between 48-72 hours. The test was performed at 37° C., 5% CO2 and at 75% relative humidity.

[2] = tested on: cancer patients (Patients B1, B2, B4, C1, C2); conditions: cited from earlier work
[3] = tested on: BT474 breast cancer cell line cells; assay: Cell attachment signal (CAS) diagnostic assay, impedance biosensor (Example 6); assay type: cell-based; conditions: lapatinib with NRG1, fulvestrant with estradiol
Method: (§1) The analyte of the diagnostic test used herein is the cell attachment signal (CAS) that viable patient cells generate, alone or in the presence of cell antagonists, when placed in the well of a microplate and analyzed with an impedance biosensor. For every test, the CAS is measured and analyzed for […] of patient cell samples. • 1) Patient cells only (C) • 2) Patient cells+pathway factor(s) (CF) • 3) Patient cells+pathway factor(s)+confirming agent (CCF)
(§2) To detect whether the signaling pathway is functioning normally, the signaling pathway in a patient's diseased cells are perturbed and the resulting activity is compared to the effect the perturbant has on the signaling pathway activity of their healthy cells or the effect of perturbant on the signaling pathway activity of healthy cells from a patient or patients known to be free of disease. The assay measures the change in CAS between the CF and C cells in a patient's healthy cells relative to the change in CAS between the CF and C cells in the diseased cells. Alternatively, the assay can measure the change in CAS between the CF and the C cells in a patient's diseased cells that can be compared to a known result from a patient or pool of patients known to be free of disease. Essentially, if the signaling pathways are abnormal, the CAS change between the healthy and diseased cells will be different. The measurement of change in CAS between CF and CCF diseased cells from a subject provides confirmation that the CF CAS represents activity of the signaling pathway of interest. In the case where CCF is not changed relative to CF, this would indicate that the signaling pathway activity in CF represents some other signaling pathway activity that is not related to the condition of interest. In these cases, the patient would not be considered to have the disease being analyzed.
(§3) Studies were performed confirming the ability of this cell analysis method to measure specific pathway activity in primary non-transformed malignant and healthy epithelial cells as well as cell lines. Representative data from these studies is shown in FIGS. 10 and 11 for two critical pathways involved in breast cancer, PI3K and ERα.

[4] = tested on: Patient 54 primary breast cancer cells; assay: as above; assay type: cell-based, human; conditions: Patient 54 primary tumor cells, lapatinib with NRG1, fulvestrant with estradiol
Method: as §1, §2, §3

[5] = tested on: cells from two HER2 overexpressing breast cancer patients (Patient B1 and B4); assay: CELx Pathway Shutdown test, impedance biosensor CReMS, EGF perturbation (Example 1); assay type: cell-based, human
Text: The change in impedance for a particular well is proportional to the number of cells and type of attachment the cells have with the impedance microplate. Changes in impedance indicate a response to perturbation of these small cell populations.
Prior to addition to the impedance microplate, the cells were removed from their growth container with versene, counted, and re-suspended in media without serum or other growth factors.

[6] = tested on: MAPK signaling pathway activity of cell sample C54; assay: CAS measurement after culture in fresh or non-fresh base media (Example 8); assay type: cell-based
Method: Many cell screening assays prescribe a simplified media-buffer that cells are placed in before and during the short time they are tested. The present invention with viable primary patient cells is performed with a base media used to maintain viable primary cell samples such that the cell population remains viable and retains its heterogeneity of individual cell types and a normal distribution of cells representing the different phases of the cell cycle during the complete test time of continuous measurement. […] A further aspect of the method includes replacing the base media with fresh base media within 72 hours of initiating contact with the perturbing or confirming agents.
The data highlights the importance of culturing the cells in fresh base media before a cell sample is contacted with a perturbing or confirming agent.

[7] = tested on: HER2 signaling pathway activity in viable breast cancer cells of non-overexpressed HER2 patients; assay: CELx test of HER2 signaling pathway activity by CAS with perturbing and confirming agents (Example 7); assay type: cell-based, human; conditions: for % Attenuation of NRG1 Signal: non-overexpressing HER2, HER2-driven disease, clinically relevant single concentration; for attenuation of the NRG1 and EGF driven activity, comparison in words: five patients of Table 17, single concentration
Text: Analyte and measurand: The analyte of the diagnostic test used herein is the cell attachment signal (CAS) that viable patient cells generate, alone or in the presence of specific cell signaling pathway perturbants, when placed in the well of an impedance biosensor microplate and continuously measured for electrical impedance. For every test, the CAS is continuously measured and used in the measurand algorithm for up to four portions of patient cell samples from the same patient. • 1. Patient cells only (C) • 2. Patient cells+perturbing pathway factor 1 (CF1) • 3. Patient cells+perturbing pathway factor 2 (CF2) (if necessary) • 4. Patient cells+perturbing pathway factor(s)+Confirming agent (CCF)
The CAS is quantified for each of the up to four portions of patient samples tested (C, CF1, CF2, CCF). To quantify the signaling pathway activity of a patient's diseased cells, the CAS measured in the CF1 and/or CF2 portions is compared to the CAS measured in the C portion. This enables determination of the change in CAS between the CF and C sample portions relative to the change in CAS between the CCF and CF sample portions to confirm how much of the change between CF and C is related to the signaling pathway of interest.
In using this confirming agent, the difference between the CAS of CF1 and/or CF2 and C can be correctly apportioned to HER2 participation. When this confirming agent is applied to cell samples before the perturbing agent, the perturbing agent is blocked from HER2-receptor-related activities thereby generating a CAS value for CCF below the CF1 and/CF2 CAS values by an amount proportional to the participation of the HER2 receptor in the CF1 and/or CF2 change relative to C.
Standard media based on DMEM/F12 without serum, with antibiotics (e.g. penicillin, streptomycin, amphotericin), and HEPES buffer were purchased and used as delivered from VWR (Radnor, Pa.) or Life Technologies (Grand Island, N.Y.).
The commercial-source cell lines were received on dry ice and cultured according to recommendation by the commercial provider. […] Prior to addition to the impedance microplate, the cells were removed from their growth container with trypsin/EDTA solution, counted, and re-suspended in media with antibiotics, without serum, or other growth factors.
The test procedure used (hereinafter referred to as CELx) comprised the following steps, all performed in 5% CO2, 85% humidity, at 37° C.: • 1. Cell Seeding: 180 uL aliquots containing 15,000 viable epithelial cells from each patient or cell line in mammary epithelial growth media with antibiotics, without serum, or other growth factors were distributed to each designated well (C, CCF, CF1, CF2) of an impedance microplate. Impedance was continuously measured throughout steps 2-4 described below. • 2. Confirming agent (20 uL) was added six hours after seeding to pre-specified CCF wells for each cell sample. […] Perturbing Factors were added (20 uL) 18 hours after seeding to pre-specified CF wells for each sample. Wells not receiving perturbing factor received media as control. • 4. Continuous impedance recordings were made for each test well for each patient typically for at least 15 hours after the perturbing agents were added.

[8] = tested on: breast cancer patient cells; assay: CELx Pathway Shutdown single drug tests, impedance biosensor CReMS (Example 4); assay type: cell-based, human; conditions: one patient breast cancer cell sample expected to be a responder (FIG. 8B)
Method: The physiologic change of the cells and drugs tested was measured with an impedance biosensor CReMS and the summary output from the CReMS is recorded in FIG. 4.
In those experiments involving a combination of drugs, the procedures described in Example 3 were utilized. The list of patient cells and the drug tested with the cells is characterized in FIG. 4.

CC(=O)O[C@H]1C(=O)[C@@]2(C)[C@H]([C@H](OC(=O)c3ccccc3)[C@]3(O)C[C@H](OC(=O)[C@H](O)[C@@H](NC(=O)c4ccccc4)c4ccccc4)C(C)=C1C3(C)C)[C@]1(OC(C)=O)CO[C@@H]1C[C@@H]2O [Paclitaxel]
CELx Anti-Proliferative test prediction of patient response ([1]; Patient B1): will respond | responsiveness, CReM output (cell index) compared to control cells ([1]; Patient B1 cells): immediate and continuous responsiveness | CELx Anti-Proliferative test prediction of patient response ([1]; Patient B2): will respond | time after which the CReM output reverses (test cells begin proliferating, no longer responsive) ([1]; Patient B2 cells): roughly 24 hours | responsiveness, CReM output (cell index) compared to control cells ([1]; Patient B2 cells): initial responsiveness | responsiveness recorded by the third party clinical reference standard ([2]; Patient B1 (breast cancer)): responsive | responsiveness recorded by the third party clinical reference standard ([2]; Patient B2 (breast cancer)): responsive

CS(=O)(=O)CCNCc1ccc(-c2ccc3ncnc(Nc4ccc(OCc5cccc(F)c5)c(Cl)c4)c3c2)o1 [Lapatinib]
effect of the confirming agent on the CAS generated by the pathway factor [3]: reduces | effect of the confirming agent on the CAS generated by the pathway factor ([3]; listed as lapatinib): reduced | effect of the confirming agent on the CAS generated by the pathway factor [4]: reduces | effect of the confirming agent on the CAS generated by the pathway factor ([4]; listed as lapatinib): reduced | responsiveness recorded by the third party clinical reference standard ([2]; Patient B1 (breast cancer)): responsive | responsiveness recorded by the third party clinical reference standard ([2]; Patient B4 (breast cancer)): responsive | CELx Pathway Shutdown test prediction of patient response ([5]; Patient B1): will respond | CELx Pathway Shutdown test prediction of patient response ([5]; Patient B4): would respond

EGF: human epidermal growth factor, perturbing agent of HER1-HER2 receptor pairings
signaling pathway activity (CAS) on perturbation ([6]; cell sample C54 cultured in fresh base media prior to contact): significant MAPK signaling pathway activity | signaling pathway activity (CAS) on perturbation ([6]; cell sample C54 cultured in non-fresh base media prior to perturbation): no signaling pathway activity | % HER2 Participation, ((CF-C) − (CCF-C))/(CF-C))*100 ([7]; Patient R112): 25% | Measurand (HER2 signal), ~(CF-C) − (CCF-C) ([7]; Patient R112): 103 | Total Ligand Signal (CF-C) ([7]; Patient R112): 398 | CAS (CCF), confirming factor + perturbing factor addition sample ([7]; Patient R112, HER2 participation confirming factor added before the perturbing ligand): 337

CCOc1cc2ncc(C#N)c(Nc3ccc(OCc4ccccn4)c(Cl)c3)c2cc1NC(=O)/C=C/CN(C)C [Neratinib]
% Attenuation of NRG1 Signal ([7]; Patient R20): 104% | % Attenuation of NRG1 Signal ([7]; Patient R39): 107% | % Attenuation of NRG1 Signal ([7]; Patient R71): 100% | % Attenuation of NRG1 Signal ([7]; Patient R82): 105% | % Attenuation of NRG1 Signal ([7]; Patient R160): 118% | attenuation of the NRG1 and EGF driven activity, comparison in words [7]: highest percentage attenuation

Pertuzumab
% Attenuation of NRG1 Signal ([7]; Patient R71): 68% | % Attenuation of NRG1 Signal ([7]; Patient R160): 95% | attenuation of the NRG1 and EGF driven activity, comparison in words [7]: significant attenuation | amount of pertuzumab inhibition of NRG1 driven activity, compared with SKBR3 ([7]; non-overexpressed HER2 patient sample R39 versus overexpressed HER2 cell line SKBR3): greater

COc1cc2ncnc(Nc3ccc(F)c(Cl)c3)c2cc1OCCCN1CCOCC1 [Gefitinib]
response in the CReMS testing [8]: did not show a response

C[C@]12CC[C@@H]3c4ccc(O)cc4C[C@@H](CCCCCCCCC[S+]([O-])CCCC(F)(F)C(F)(F)F)[C@H]3[C@@H]1CC[C@@H]2O (stereo partly drawn) [fulvestrant]
effect of the confirming agent on the CAS generated by the pathway factor [3]: reversed | effect of the confirming agent on the CAS generated by the pathway factor ([3]; listed as Fulvestrant): reduced | effect of the confirming agent on the CAS generated by the pathway factor [4]: reversed | effect of the confirming agent on the CAS generated by the pathway factor ([4]; listed as Fulvestrant): reduced
